# In PubChem BioAssay (NCI):
#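 Five compound concentrations were applied to cells in 96-well plates for 48 hours; endpoints were derived by simple linear interpolation of the resulting dose-response curve. The concentration for 50% growth inhibition is given as GI50. Definition used: TGI = concentration required for complete inhibition of growth.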
# Legend:
# Assay in all cases: growth of human tumour cells (NCI), 48 h
# NCI-H23 lung = tested on: NCI-H23 lung
# EKVX NSCLC = tested on: EKVX NSCLC
# PC-3 prostate = tested on: PC-3 prostate
# MALME-3M melanoma = tested on: MALME-3M melanoma
# SK-MEL-5 melanoma = tested on: SK-MEL-5 melanoma
# LOX IMVI melanoma = tested on: LOX IMVI melanoma
# SN12C renal = tested on: SN12C renal
# SNB-19 CNS = tested on: SNB-19 CNS
# KM12 colon = tested on: KM12 colon
# MCF7 breast = tested on: MCF7 breast
# MDA-MB-435 = tested on: MDA-MB-435
# UACC-62 melanoma = tested on: UACC-62 melanoma
# U251 CNS = tested on: U251 CNS
# MDA-MB-231 breast = tested on: MDA-MB-231 breast
# SK-MEL-28 melanoma = tested on: SK-MEL-28 melanoma
# CCRF-CEM leukemia = tested on: CCRF-CEM leukemia
# NCI-H460 lung = tested on: NCI-H460 lung
# CAKI-1 renal = tested on: CAKI-1 renal
# HS 578T breast = tested on: HS 578T breast
# NCI-H522 lung = tested on: NCI-H522 lung
# TK-10 renal = tested on: TK-10 renal
# RPMI-8226 leukemia = tested on: RPMI-8226 leukemia
# NCI/ADR-RES ovarian = tested on: NCI/ADR-RES ovarian
# ACHN renal = tested on: ACHN renal
# K-562 leukemia = tested on: K-562 leukemia
# OVCAR-3 ovarian = tested on: OVCAR-3 ovarian
# HL-60(TB) leukemia = tested on: HL-60(TB) leukemia
# SF-295 CNS = tested on: SF-295 CNS
# SF-268 CNS = tested on: SF-268 CNS
# RXF 393 renal = tested on: RXF 393 renal
# A498 renal = tested on: A498 renal
# COLO 205 colon = tested on: COLO 205 colon
# HOP-62 NSCLC = tested on: HOP-62 NSCLC
# HOP-92 NSCLC = tested on: HOP-92 NSCLC
# UO-31 renal = tested on: UO-31 renal
# HCT-15 colon = tested on: HCT-15 colon
# SR leukemia = tested on: SR leukemia
# 786-0 renal = tested on: 786-0 renal
# SK-OV-3 ovarian = tested on: SK-OV-3 ovarian
# SF-539 CNS = tested on: SF-539 CNS
# OVCAR-5 ovarian = tested on: OVCAR-5 ovarian
# NCI-H226 lung = tested on: NCI-H226 lung
# SW-620 colon = tested on: SW-620 colon
# OVCAR-4 ovarian = tested on: OVCAR-4 ovarian
# T-47D breast = tested on: T-47D breast
# A549 NSCLC = tested on: A549 NSCLC
# BT-549 breast = tested on: BT-549 breast
# DU-145 prostate = tested on: DU-145 prostate
# SNB-75 CNS = tested on: SNB-75 CNS
# IGROV1 ovarian = tested on: IGROV1 ovarian
# HT29 colon = tested on: HT29 colon
# OVCAR-8 ovarian = tested on: OVCAR-8 ovarian
# M14 melanoma = tested on: M14 melanoma
# MOLT-4 leukemia = tested on: MOLT-4 leukemia
# UACC-257 melanoma = tested on: UACC-257 melanoma
# SK-MEL-2 melanoma = tested on: SK-MEL-2 melanoma
# HCT-116 colon = tested on: HCT-116 colon
structure (smiles),measurement,setting,value
c1ccc(Cn2cc3c(c2-c2ccccc2)CCc2cnoc2-3)cc1,GI50,NCI-H23 lung,4.92 µM
same,TGI,NCI-H23 lung,69.2 µM
same,GI50,EKVX NSCLC,5.53 µM
same,TGI,EKVX NSCLC,> 100 µM
same,GI50,PC-3 prostate,6.13 µM
same,TGI,PC-3 prostate,> 100 µM
same,GI50,MALME-3M melanoma,3.13 µM
same,TGI,MALME-3M melanoma,30.1 µM
same,GI50,SK-MEL-5 melanoma,2.79 µM
same,TGI,SK-MEL-5 melanoma,12.8 µM
same,GI50,LOX IMVI melanoma,4.23 µM
same,TGI,LOX IMVI melanoma,> 100 µM
same,GI50,SN12C renal,7.83 µM
same,TGI,SN12C renal,> 100 µM
same,GI50,SNB-19 CNS,4.24 µM
same,TGI,SNB-19 CNS,> 100 µM
same,GI50,KM12 colon,3.27 µM
same,TGI,KM12 colon,47 µM
same,GI50,MCF7 breast,3.44 µM
same,TGI,MCF7 breast,> 100 µM
same,GI50,MDA-MB-435,1.89 µM
same,TGI,MDA-MB-435,7.18 µM
same,GI50,UACC-62 melanoma,4.48 µM
same,TGI,UACC-62 melanoma,> 100 µM
same,GI50,U251 CNS,3.65 µM
same,TGI,U251 CNS,> 100 µM
same,GI50,MDA-MB-231 breast,5.68 µM
same,TGI,MDA-MB-231 breast,> 100 µM
same,GI50,SK-MEL-28 melanoma,6.58 µM
same,TGI,SK-MEL-28 melanoma,> 100 µM
same,GI50,CCRF-CEM leukemia,3.59 µM
same,TGI,CCRF-CEM leukemia,> 100 µM
same,GI50,NCI-H460 lung,3.41 µM
same,TGI,NCI-H460 lung,22.1 µM
same,GI50,CAKI-1 renal,4.4 µM
same,TGI,CAKI-1 renal,> 100 µM
same,GI50,HS 578T breast,3.88 µM
same,TGI,HS 578T breast,26.4 µM
same,GI50,NCI-H522 lung,3.04 µM
same,TGI,NCI-H522 lung,> 100 µM
same,GI50,TK-10 renal,8.22 µM
same,TGI,TK-10 renal,> 100 µM
same,GI50,RPMI-8226 leukemia,3.1 µM
same,TGI,RPMI-8226 leukemia,> 100 µM
same,GI50,NCI/ADR-RES ovarian,2.75 µM
same,TGI,NCI/ADR-RES ovarian,9.53 µM
same,GI50,ACHN renal,9.36 µM
same,TGI,ACHN renal,> 100 µM
same,GI50,K-562 leukemia,2.14 µM
same,TGI,K-562 leukemia,7.31 µM
same,GI50,OVCAR-3 ovarian,3.73 µM
same,TGI,OVCAR-3 ovarian,24.7 µM
same,GI50,HL-60(TB) leukemia,1.75 µM
same,TGI,HL-60(TB) leukemia,4.09 µM
same,GI50,SF-295 CNS,3.16 µM
same,TGI,SF-295 CNS,31.5 µM
same,GI50,SF-268 CNS,8.05 µM
same,TGI,SF-268 CNS,> 100 µM
same,GI50,RXF 393 renal,4.94 µM
same,TGI,RXF 393 renal,61.2 µM
same,GI50,A498 renal,7.33 µM
same,TGI,A498 renal,> 100 µM
same,GI50,COLO 205 colon,2.9 µM
same,TGI,COLO 205 colon,11.1 µM
same,GI50,HOP-62 NSCLC,6.76 µM
same,TGI,HOP-62 NSCLC,> 100 µM
same,GI50,HOP-92 NSCLC,18 µM
same,TGI,HOP-92 NSCLC,> 100 µM
same,GI50,UO-31 renal,7.65 µM
same,TGI,UO-31 renal,> 100 µM
same,GI50,HCT-15 colon,3.72 µM
same,TGI,HCT-15 colon,> 100 µM
same,GI50,SR leukemia,1.96 µM
same,TGI,SR leukemia,9.28 µM
same,GI50,786-0 renal,6.7 µM
same,TGI,786-0 renal,69.1 µM
same,GI50,SK-OV-3 ovarian,7.36 µM
same,TGI,SK-OV-3 ovarian,> 100 µM
same,GI50,SF-539 CNS,5.34 µM
same,TGI,SF-539 CNS,38.9 µM
same,GI50,OVCAR-5 ovarian,33 µM
same,TGI,OVCAR-5 ovarian,> 100 µM
same,GI50,NCI-H226 lung,14.7 µM
same,TGI,NCI-H226 lung,> 100 µM
same,GI50,SW-620 colon,3.15 µM
same,TGI,SW-620 colon,53.9 µM
same,GI50,OVCAR-4 ovarian,10.7 µM
same,TGI,OVCAR-4 ovarian,> 100 µM
same,GI50,T-47D breast,4.5 µM
same,TGI,T-47D breast,> 100 µM
same,GI50,A549 NSCLC,5.73 µM
same,TGI,A549 NSCLC,> 100 µM
same,GI50,BT-549 breast,6.63 µM
same,TGI,BT-549 breast,56.1 µM
same,GI50,DU-145 prostate,20.1 µM
same,TGI,DU-145 prostate,> 100 µM
same,GI50,SNB-75 CNS,3.27 µM
same,TGI,SNB-75 CNS,63.4 µM
same,GI50,IGROV1 ovarian,5.51 µM
same,TGI,IGROV1 ovarian,> 100 µM
same,GI50,HT29 colon,3.11 µM
same,TGI,HT29 colon,33.4 µM
same,GI50,OVCAR-8 ovarian,8.05 µM
same,TGI,OVCAR-8 ovarian,> 100 µM
same,GI50,M14 melanoma,4.89 µM
same,TGI,M14 melanoma,> 100 µM
same,GI50,MOLT-4 leukemia,2.19 µM
same,TGI,MOLT-4 leukemia,6.98 µM
same,GI50,UACC-257 melanoma,17.7 µM
same,TGI,UACC-257 melanoma,> 100 µM
same,GI50,SK-MEL-2 melanoma,11.5 µM
same,TGI,SK-MEL-2 melanoma,> 100 µM
same,GI50,HCT-116 colon,3.27 µM
same,TGI,HCT-116 colon,> 100 µM
